Test results: paper PMC3914206

How the values were obtained:
[1] = target: T1, panel of 442 kinases (Homo sapiens, UniProt P54753); format: binding; details: Compound Concentration 10 µM
T1 construct: purchased KINOMEscan
T1 sequence (P54753 34-998): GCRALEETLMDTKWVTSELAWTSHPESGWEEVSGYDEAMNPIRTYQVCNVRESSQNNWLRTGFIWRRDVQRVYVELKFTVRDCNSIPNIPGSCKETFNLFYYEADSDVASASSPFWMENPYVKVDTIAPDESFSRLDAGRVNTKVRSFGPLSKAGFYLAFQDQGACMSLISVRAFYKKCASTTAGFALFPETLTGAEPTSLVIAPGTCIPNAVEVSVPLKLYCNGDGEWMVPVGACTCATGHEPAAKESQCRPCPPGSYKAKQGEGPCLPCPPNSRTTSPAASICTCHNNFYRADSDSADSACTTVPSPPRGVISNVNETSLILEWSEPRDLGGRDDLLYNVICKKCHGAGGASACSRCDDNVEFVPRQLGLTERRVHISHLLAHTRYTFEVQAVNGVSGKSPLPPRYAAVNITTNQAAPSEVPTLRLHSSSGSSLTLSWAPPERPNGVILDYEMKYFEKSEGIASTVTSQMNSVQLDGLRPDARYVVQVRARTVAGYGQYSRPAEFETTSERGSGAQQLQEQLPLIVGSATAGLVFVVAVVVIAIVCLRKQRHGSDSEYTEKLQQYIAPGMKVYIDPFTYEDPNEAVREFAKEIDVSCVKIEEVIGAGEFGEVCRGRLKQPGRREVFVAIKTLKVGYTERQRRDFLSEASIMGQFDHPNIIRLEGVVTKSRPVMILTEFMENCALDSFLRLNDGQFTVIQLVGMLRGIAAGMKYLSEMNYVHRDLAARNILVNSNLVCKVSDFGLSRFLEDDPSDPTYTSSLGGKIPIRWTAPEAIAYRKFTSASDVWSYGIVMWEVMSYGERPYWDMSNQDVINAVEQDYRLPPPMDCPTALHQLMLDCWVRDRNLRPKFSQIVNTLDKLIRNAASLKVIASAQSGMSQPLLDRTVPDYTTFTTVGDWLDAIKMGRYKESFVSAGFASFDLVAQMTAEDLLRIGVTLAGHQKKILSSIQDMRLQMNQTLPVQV
Excerpt: (§1) We assessed the selectivity of members of this scaffold using the KINOMEscan methodology across a near comprehensive panel of 442 kinases [[18,27]].

[2] = target: T2, panel of 442 kinases (Homo sapiens, UniProt P52564); format: binding; details: Compound Concentration 10 µM
T2 construct: purchased KINOMEscan
T2 sequence (P52564 1-334): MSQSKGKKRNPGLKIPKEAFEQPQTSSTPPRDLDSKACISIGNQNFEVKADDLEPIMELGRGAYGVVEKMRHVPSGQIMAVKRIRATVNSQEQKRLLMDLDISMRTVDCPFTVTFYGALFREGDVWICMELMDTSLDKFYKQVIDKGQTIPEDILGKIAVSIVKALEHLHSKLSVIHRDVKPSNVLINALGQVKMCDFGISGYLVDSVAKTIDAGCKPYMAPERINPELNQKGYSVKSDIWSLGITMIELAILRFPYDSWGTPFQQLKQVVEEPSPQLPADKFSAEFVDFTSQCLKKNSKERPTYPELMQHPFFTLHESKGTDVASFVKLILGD
Excerpt: as §1

Row | SMILES | KINOMEscan: EPHB3 [1] | KINOMEscan: MEK6 [2]
1 | COc1cc(C(=O)N2CCC(N3CCN(C)CC3)CC2)ccc1Nc1ncc2c(n1)N(C)c1ccccc1C(=O)N2C [15 (LRRK2-IN-1)] | 100 | 83
2 | COc1cc(C(=O)N2CCC(N3CCN(C)CC3)CC2)ccc1Nc1ncc2c(n1)N1CCc3cccc(c31)C(=O)N2C [Compound 24] | – | 66
3 | COc1cc(C(=O)N2CCC(N3CCN(C)CC3)CC2)ccc1Nc1ncc2c(n1)N(C1CCCC1)c1ccccc1C(=O)N2C [Compound 25, 11-cyclopentyl-2-((2-methoxy-4-(4-(4-methylpiperazin-1-yl)piperidine-1-carbonyl)phenyl)amino)-5-methyl-5H-benzo[e]pyrimido[5,4-b][1,4]diazepin-6(11H)-one] | 96 | 61
4 | CCOc1cc(C(=O)N2CCC(N3CCN(C)CC3)CC2)ccc1Nc1ncc2c(n1)N(C1CCCC1)c1ccccc1C(=O)N2C [Compound 26] | 100 | 84
